Experimental data: PubChem BioAssay (NCI)
“And” between values parts separate entries of the source, which are not always exact repeats. Equal entries are not always repeated.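 Following 48 hours of exposure in 96-well plates, responses at five concentrations were used to interpolate endpoints linearly. GI50: concentration for 50% inhibition of growth. TGI denotes the concentration required for complete inhibition of growth.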

Legend:
Test in all cases: growth of human tumour cells (NCI), 48 h
[1] = test system: CCRF-CEM leukemia
[2] = test system: HCT-15 colon
[3] = test system: HOP-62 NSCLC
[4] = test system: M14 melanoma
[5] = test system: NCI-H226 lung
[6] = test system: OVCAR-8 ovarian
[7] = test system: RXF 393 renal
[8] = test system: SNB-75 CNS
[9] = test system: SR leukemia
[10] = test system: SW-620 colon

SMILES | GI50 [1] | TGI [1] | GI50 [2] | TGI [2] | GI50 [3] | TGI [3] | GI50 [4] | TGI [4] | GI50 [5] | GI50 [6] | TGI [6] | GI50 [7] | TGI [7] | GI50 [8] | TGI [8] | GI50 [9] | TGI [9] | GI50 [10] | TGI [10] | TGI [5]
O=C(Nc1ccccc1C(=O)N/N=C(\c1ccccc1)c1ccccn1)c1ccc(F)cc1 | 0.121 µM | > 100 µM | 0.0426 µM | > 100 µM | 0.214 µM | > 38.5 µM | 0.276 µM | 3.89 µM | 0.366 µM | 0.31 µM | > 100 µM | 0.576 µM | 9.17 µM | 4.81 µM | > 100 µM | 0.142 µM | > 100 µM | 0.448 µM | > 100 µM | –
CC1CCC2N(C1)CC1C3(O)CC45OC6(O)C(O)CCC4(C)C6CCC5C3(O)CC(O)C1(O)C2(C)O (centres undefined) | – | > 100 µM | – | > 100 µM | – | > 100 µM | – | > 100 µM | – | – | > 100 µM | – | > 100 µM | – | > 100 µM | – | > 100 µM | – | > 100 µM | > 100 µM
COc1cc2cc3c4c(cc(OC)c(OC)c4c2cc1OC)CCN3C(=O)CCC(=O)NCCCN(C)C | – | 88.2 µM | – | > 100 µM | – | > 100 µM | – | 32 µM | – | – | > 100 µM | – | > 100 µM | – | 53.2 µM | – | 62 µM | – | > 100 µM | > 100 µM
C/C(CC(=O)N(C(C)C)C(C)C)=N\NC(=O)c1ccncc1 | – | > 100 µM | – | > 100 µM | – | – | – | > 100 µM | – | – | > 100 µM | – | > 100 µM | – | > 100 µM | – | > 100 µM | – | > 100 µM | > 100 µM
CC1=C(C(=O)Nc2ccc(Cl)c(Cl)c2)C(c2ccccc2O)NC(=O)N1 (centres undefined) | > 50 µM | > 50 µM | > 50 µM | > 50 µM | > 50 µM | > 50 µM | > 50 µM | > 50 µM | 21.3 µM | 24.8 µM | > 50 µM | > 50 µM | > 50 µM | 25.9 µM | > 50 µM | 39.9 µM | > 50 µM | > 50 µM | > 50 µM | > 50 µM
Cc1cc(C(O)CN(C)C)cc2c1ccc1cc(C(C)C)ccc12 (centres undefined) | 2.48 µM | 5.65 µM | 1.81 µM | 3.61 µM | 1.59 µM | 3.08 µM | 2.02 µM | 4.03 µM | 2.66 µM | – | – | 1.78 µM | 3.36 µM | 1.72 µM | 3.67 µM | 1.96 µM | 5.21 µM | 1.79 µM | 3.5 µM | 8.84 µM
N#CC1C=Cc2ccccc2N1C(=O)Oc1ccccc1 (centres undefined) | – | 81.6 µM | – | > 100 µM | – | – | – | > 100 µM | – | – | > 100 µM | – | > 100 µM | – | > 100 µM | – | > 100 µM | – | > 100 µM | > 100 µM
COc1ccc(OC)c2c3c(ccc12)C(c1ccccc1)OC3=O (centres undefined) | – | > 100 µM | – | > 100 µM | – | > 100 µM | – | > 100 µM | – | – | > 100 µM | – | > 100 µM | – | > 100 µM | – | > 100 µM | – | > 100 µM | > 100 µM
COc1cc([N+](=O)[O-])c2ncccc2c1[N+](=O)[O-] | 3.44 µM | 28.6 µM | 5.39 µM | 21.6 µM | 11.7 µM | 24.8 µM | 4.24 µM | 15.8 µM | 15.3 µM | 4.33 µM | 15.9 µM | 4.37 µM | 17.5 µM | 3.77 µM | 18 µM | 3.33 µM | > 100 µM | 1.82 µM | 3.44 µM | 31.5 µM
COc1ccc2nc3ccccc3c(NCCCCN(C)CCCl)c2c1 | – | 0.229 µM | – | 0.494 µM | – | 0.546 µM | – | 0.314 µM | – | – | – | – | 0.362 µM | – | 0.504 µM | – | 0.0355 µM | – | 0.2 µM | 0.575 µM
CC(=O)Oc1ccc2c(c1)CC[C@@H]1C2CC[C@]2(C)C(=O)NC(=O)CC12 (some centres undefined) | – | > 100 µM | – | – | – | > 100 µM | – | > 100 µM | – | – | > 100 µM | – | > 100 µM | – | > 100 µM | – | > 100 µM | – | > 100 µM | > 100 µM
Nc1ccc(S(=O)(=O)Nc2cnc3c(Cl)cccc3n2)cc1 | – | > 657 µM | 43.5 µM | > 562 µM | 24.6 µM | 188 µM | – | > 750 µM | > 75.6 µM | 40.1 µM | > 750 µM | 9.52 µM | > 31.6 µM and 460 µM | 51.6 µM | > 95 µM and 682 µM | 23.1 µM | > 750 µM | 52.3 µM | > 678 µM | > 750 µM
O=C(c1ccc(Cl)cc1)C1OC12C(=O)Nc1ccccc12 (centres undefined) | – | 4.71 µM | – | 11.2 µM | – | > 73.3 µM | – | 19 µM | – | – | 36 µM | – | 29.6 µM | – | 32 µM | – | 3.22 µM | – | 17.4 µM | 40.7 µM
COc1ccc(CCc2cc(OC)c(OC)c(OC)c2)cc1 | – | 12.4 µM | – | 10.2 µM | – | 14 µM | – | 16 µM | – | – | 32.2 µM | – | 0.057 µM | – | > 100 µM | – | 0.78 µM | – | > 100 µM | 7.46 µM
CC/C=C\C/C=C\C[C@H](O)C/C=C1/C(=O)C=C[C@@H]1C/C=C\CCCC(=O)OC | 0.315 µM | 1.77 µM | 0.494 µM | 2.38 µM | 1.65 µM | 4.1 µM | 1.43 µM | 3.53 µM | 1.92 µM | 0.774 µM | 13 µM | 1.97 µM | 3.61 µM | 11.3 µM | 24.6 µM | 0.281 µM | 1.87 µM | 0.834 µM | 10.3 µM | 3.79 µM
CCOP(=O)(Nc1ccc2oc(=O)c3ccccc3c2c1)OCC | – | > 100 µM | – | > 100 µM | – | > 100 µM | – | > 100 µM | – | – | > 100 µM | – | > 100 µM | – | > 100 µM | – | > 100 µM | – | > 100 µM | > 100 µM
CO[C@@]12[C@@H]3NC3CN1C1=C(C(=O)C(N)=C(C)C1=O)[C@@H]2COC(N)=O (some centres undefined) | 0.296 µM | > 63.5 µM | 0.807 µM | > 100 µM | – | 8.21 µM | – | 1.82 µM | 0.504 µM | – | – | 1.27 µM | 4.16 µM | – | – | 0.0325 µM | > 100 µM | – | 7.01 µM | 2.78 µM
CCSC(SCC)=C1C(=O)N(c2ccccc2)N=C1C | – | 11 µM | – | 24.7 µM | – | 53.7 µM | – | 29.7 µM | – | – | 24.4 µM | – | 5.89 µM | – | 43.9 µM | – | 38.4 µM | – | 20.3 µM | 29.9 µM
COC(=O)/C(=N/NC(N)=O)C(C(=O)OC)C(=O)C(=O)Nc1ccc(Cl)cc1 (centres undefined) | – | > 75.5 µM | – | > 100 µM | – | > 100 µM | – | > 100 µM | – | – | > 100 µM | – | > 100 µM | – | > 100 µM | – | 46.5 µM | – | > 100 µM | > 100 µM
O=C1CN(/N=C/c2ccc(-c3ccc(F)cc3)o2)C(=O)N1 | – | > 100 µM | – | > 100 µM | – | > 100 µM | – | > 100 µM | – | – | > 100 µM | – | > 100 µM | – | – | – | 75.7 µM | – | > 100 µM | 88.5 µM
O=c1cc(-c2ccccn2)[nH]c2ccc(Cl)cc12 | – | > 100 µM | – | – | – | > 100 µM | – | > 100 µM | 46.5 µM | – | > 100 µM | 34 µM | > 100 µM | – | > 100 µM | – | > 100 µM | – | > 100 µM | > 100 µM
CC(=O)N(Cc1ccccc1)c1ccccc1I(=O)=O | 16.6 µM | 35.5 µM | 19.8 µM | 40.5 µM | – | – | – | – | > 100 µM | 48.3 µM | > 100 µM | > 100 µM | > 100 µM | 50.9 µM | > 100 µM | 0.18 µM | 4.37 µM | 29.4 µM | 91.9 µM | > 100 µM
O=S(=O)(c1ccc(O)c(C=Nc2ccc(Cl)cc2)c1)c1ccc(O)c(C=Nc2ccc(Cl)cc2)c1 | – | > 100 µM | – | – | – | > 100 µM | – | > 100 µM | – | – | > 100 µM | – | > 100 µM | – | > 100 µM | – | > 100 µM | – | > 100 µM | > 100 µM
CCCCCCCCCCCCOP(N)(=O)OCCCCCCCCCCCC | – | > 100 µM | – | > 100 µM | – | > 100 µM | – | > 100 µM | – | – | > 100 µM | – | > 100 µM | – | > 100 µM | – | > 100 µM | – | > 100 µM | –
CC1(C)CC[C@]2(C(N)=O)CC[C@]3(C)C(=CC[C@@H]4[C@@]5(C)C/C(=C/c6ccncc6)C(=O)C(C)(C)[C@@H]5CC[C@]43C)[C@@H]2C1 | 2.13 µM | 5.45 µM | 1.69 µM | 3.46 µM | 2.01 µM | 4.71 µM | 2.05 µM | 4.62 µM | – | 3.2 µM | > 100 µM | 1.59 µM | 3.05 µM | 2.48 µM | 8.22 µM | 2.18 µM | 6.5 µM | 2.04 µM | 4.62 µM | –
O=c1c2ccccc2oc2ccc(OCCCCCCN3CCCCCC3)cc12 | 3.17 µM | 12 µM | 2.09 µM | 11.1 µM | – | – | 1.88 µM | 3.69 µM | 4.29 µM | 4.66 µM | 17.9 µM | 2.17 µM | 5.6 µM | 3.11 µM | 14.1 µM | 1.95 µM | 4.93 µM | 3.11 µM | 11 µM | 20.2 µM
